Measurements reported in patent publication US6737383B1, “Herbicidal oxadiazolidines” (priority 1999, dated 2004).

Legend:
rice = test: Test B flood test rice; assay type: in vivo, Oryza sativa
In short: (§1)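 Each value is a visual injury score relative to controls, with 10 meaning complete control and 0 no effect. Evaluation took place twelve to sixteen days after the 2-leaf-stage plants were treated and kept in the greenhouse.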

cocklebur = test: Test B pre/postemergence cocklebur; assay type: in vivo, Xanthium strumarium
In short: (§2)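 Herbicidal effect was estimated by eye on a ten-point control scale after plants spent twelve to sixteen days in a greenhouse following soil or foliar treatment. Foliar sprays targeted plants at one to four leaves; all doses were formulated in a non-phytotoxic solvent with surfactant.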

rape = test: Test B pre/postemergence rape; assay type: in vivo, Brassica napus
In short: as §2

purple nutsedge = test: Test B pre/postemergence purple nutsedge; assay type: in vivo, Cyperus rotundus
In short: as §2

giant foxtail = test: Test B pre/postemergence giant foxtail; assay type: in vivo, Setaria faberii
In short: as §2

bamyardgrass = test: Test B flood test barnyardgrass; assay type: in vivo, Echinochloa crus-galli
In short: as §1

wild oat = test: Test B pre/postemergence wild oat; assay type: in vivo, Avena fatua
In short: as §2

crabgrass = test: Test B pre/postemergence crabgrass; assay type: in vivo, Digitaria sanguinalis
In short: as §2

corn = test: Test B pre/postemergence corn; assay type: in vivo, Zea mays
In short: as §2

surinam grass = test: Test B pre/postemergence surinam grass; assay type: in vivo, Brachiaria decumbens
In short: as §2

duck salad = test: Test B flood test duck salad; assay type: in vivo, Heteranthera limosa
In short: as §1

wheat = test: Test B pre/postemergence wheat; assay type: in vivo, Triticum aestivum
In short: as §2

smallflower flatsedge = test: Test B flood test smallflower flatsedge; assay type: in vivo, Cyperus difformis
In short: as §1

sugar beet = test: Test B pre/postemergence sugar beet; assay type: in vivo, Beta vulgaris
In short: as §2

pigweed = test: Test B pre/postemergence pigweed; assay type: in vivo, Amaranthus retroflexus
In short: as §2

morningglory = test: Test B pre/postemergence morningglory; assay type: in vivo, Ipomoea hederacea
In short: as §2

[1] = Rate 62 g/ha, headed Pre-emergence (flood test species), scale 0 to 10 (0 no effect, 10 complete control)
[2] = Rate 125 g/ha, Pre-emergence, flood test species, scale 0 to 10 where 0 is no effect and 10 is complete control
[3] = Rate 250 g/ha, Pre-emergence, flood-test species, scale 0 to 10, 0 is no effect, 10 is complete control
[4] = Rate 500 g/ha, Pre-emergence, flood test species, scale 0 to 10 (0 no effect, 10 complete control)
[5] = Preemergence, Rate 62 g/ha, scale of 0 to 10 where 0 is no effect and 10 is complete control
[6] = Preemergence, Rate 250 g/ha, scale of 0 to 10 where 0 is no effect and 10 is complete control
[7] = Preemergence, Rate 500 g/ha, scale of 0 to 10 where 0 is no effect and 10 is complete control
[8] = Rate 62 g/ha, Postemergence, scale of 0 to 10 where 0 is no effect and 10 is complete control
[9] = Rate 125 g/ha, Postemergence, scale 0 to 10
[10] = Rate 125 g/ha, Preemergence, scale of 0 to 10 where 0 is no effect and 10 is complete control
[11] = Rate 500 g/ha, Postemergence, scale 0 to 10, 0 no effect, 10 complete control

**Q.** What does the source list for `CCc1ccc(N(C(=O)n2oc(=O)n(-c3ccccc3C)c2=O)C(C)C)cc1` [Compound 230]?
**A.** Rice plant response rating (rice; [1]): 0; Rice plant response rating (rice; [2]): 0; Rice plant response rating (rice; [3]): 0; Rice plant response rating (rice; [4]): 0; Cocklebur plant response rating (cocklebur; [5]): 0; Cocklebur plant response rating (cocklebur; [6]): 0; Plant response rating, Cocklebur (cocklebur; [7]): 0; Cocklebur plant response rating (cocklebur; [8]): 0; Cocklebur plant response rating (cocklebur; [9]): 0; Cocklebur plant response rating (cocklebur; [10]): 0; Plant response rating (0 to 10; 0 is no effect, 10 is complete control), Cocklebur (cocklebur; Rate 250 g/ha, Postemergence): 0; Cocklebur plant response rating (cocklebur; [11]): 0; Rape plant response rating (rape; [5]): 0; Rape plant response rating (rape; [6]): 0; Plant response rating, Rape (rape; [7]): 0; Rape plant response rating (rape; [8]): 0; Rape plant response rating (rape; [9]): 0; Rape plant response rating (rape; [10]): 0; Plant response rating (0 to 10; 0 is no effect, 10 is complete control), Rape (rape; Rate 250 g/ha, Postemergence): 0; Rape plant response rating (rape; [11]): 0; Nutsedge plant response rating (purple nutsedge; [5]): 0; Nutsedge plant response rating (purple nutsedge; [6]): 0; Plant response rating, Nutsedge (purple nutsedge; [7]): 0; Nutsedge plant response rating (purple nutsedge; [8]): 0; Nutsedge plant response rating (purple nutsedge; [9]): 0; Nutsedge plant response rating (purple nutsedge; [10]): 0; Plant response rating (0 to 10; 0 is no effect, 10 is complete control), Nutsedge (purple nutsedge; Rate 250 g/ha, Postemergence): 0; Nutsedge plant response rating (purple nutsedge; [11]): 0; Giant foxtail plant response rating (giant foxtail; [5]): 2; Giant foxtail plant response rating (giant foxtail; [6]): 8; Plant response rating, Giant foxtail (giant foxtail; [7]): 9; Giant foxtail plant response rating (giant foxtail; [8]): 0; Giant foxtail plant response rating (giant foxtail; [9]): 0; Giant foxtail plant response rating (giant foxtail; [10]): 2; Plant response rating (0 to 10; 0 is no effect, 10 is complete control), Giant foxtail (giant foxtail; Rate 250 g/ha, Postemergence): 0; Giant foxtail plant response rating (giant foxtail; [11]): 1; Barnyardgrass plant response rating (bamyardgrass; [1]): 0; Barnyardgrass plant response rating (bamyardgrass; [2]): 0; Barnyardgrass plant response rating (bamyardgrass; [3]): 0; Barnyardgrass plant response rating (bamyardgrass; [4]): 0; Wild oats plant response rating (wild oat; [5]): 0; Wild oats plant response rating (wild oat; [6]): 0; Plant response rating, Wild oats (wild oat; [7]): 0; Wild oats plant response rating (wild oat; [8]): 0; Wild oats plant response rating (wild oat; [9]): 0; Wild oats plant response rating (wild oat; [10]): 0; Plant response rating (0 to 10; 0 is no effect, 10 is complete control), Wild oats (wild oat; Rate 250 g/ha, Postemergence): 0; Wild oats plant response rating (wild oat; [11]): 0; Crabgrass plant response rating (crabgrass; [5]): 1; Crabgrass plant response rating (crabgrass; [6]): 7; Plant response rating, Crabgrass (crabgrass; [7]): 9; Crabgrass plant response rating (crabgrass; [8]): 0; Crabgrass plant response rating (crabgrass; [9]): 0; Crabgrass plant response rating (crabgrass; [10]): 1; Plant response rating (0 to 10; 0 is no effect, 10 is complete control), Crabgrass (crabgrass; Rate 250 g/ha, Postemergence): 0; Crabgrass plant response rating (crabgrass; [11]): 2; Corn plant response rating (corn; [5]): 0; Corn plant response rating (corn; [6]): 0; Plant response rating, Corn (corn; [7]): 0; Corn plant response rating (corn; [8]): 0; Corn plant response rating (corn; [9]): 0; Corn plant response rating (corn; [10]): 0; Plant response rating (0 to 10; 0 is no effect, 10 is complete control), Corn (corn; Rate 250 g/ha, Postemergence): 0; Corn plant response rating (corn; [11]): 0; B. signalgrass plant response rating (surinam grass; [5]): 0; B. signalgrass plant response rating (surinam grass; Preemergence, Rate 250 g/ha, scale 0 to 10, 0 is no effect, 10 is complete control): 0; Plant response rating, B. signalgrass (surinam grass; [7]): 0; B. signalgrass plant response rating (surinam grass; [8]): 0; B. signalgrass plant response rating (surinam grass; Rate 125 g/ha, Postemergence, scale 0 (no effect) to 10 (complete control)): 0; B. signalgrass plant response rating (surinam grass; [10]): 0; Plant response rating (0 to 10; 0 is no effect, 10 is complete control), B. signalgrass (surinam grass; Rate 250 g/ha, Postemergence): 0; B. signalgrass plant response rating (surinam grass; [11]): 0; Ducksalad plant response rating (duck salad; [1]): 0; Ducksalad plant response rating (duck salad; [2]): 0; Ducksalad plant response rating (duck salad; [3]): 0; Ducksalad plant response rating (duck salad; [4]): 0; Wheat plant response rating (wheat; [5]): 0; Wheat plant response rating (wheat; [6]): 0; Plant response rating, Wheat (wheat; [7]): 0; Wheat plant response rating (wheat; [8]): 0; Wheat plant response rating (wheat; [9]): 0; Wheat plant response rating (wheat; [10]): 0; Plant response rating (0 to 10; 0 is no effect, 10 is complete control), Wheat (wheat; Rate 250 g/ha, Postemergence): 0; Wheat plant response rating (wheat; [11]): 0; S. Flatsedge plant response rating (smallflower flatsedge; [1]): 0; S. Flatsedge plant response rating (smallflower flatsedge; [2]): 0; S. Flatsedge plant response rating (smallflower flatsedge; [3]): 0; S. Flatsedge plant response rating (smallflower flatsedge; [4]): 0; Sugarbeets plant response rating (sugar beet; [5]): 0; Sugarbeets plant response rating (sugar beet; [6]): 0; Plant response rating, Sugarbeets (sugar beet; [7]): 0; Sugarbeets plant response rating (sugar beet; [8]): 0; Sugarbeets plant response rating (sugar beet; [9]): 0; Sugarbeets plant response rating (sugar beet; [10]): 0; Plant response rating (0 to 10; 0 is no effect, 10 is complete control), Sugarbeets (sugar beet; Rate 250 g/ha, Postemergence): 0; Sugarbeets plant response rating (sugar beet; [11]): 0; Redroot pigweed plant response rating (pigweed; [5]): 0; Redroot pigweed plant response rating (pigweed; [6]): 0; Plant response rating, Redroot pigweed (pigweed; [7]): 0; Redroot pigweed plant response rating (pigweed; [8]): 0; Redroot pigweed plant response rating (pigweed; [9]): 0; Redroot pigweed plant response rating (pigweed; [10]): 0; Plant response rating (0 to 10; 0 is no effect, 10 is complete control), Redroot pigweed (pigweed; Rate 250 g/ha, Postemergence): 0; Redroot pigweed plant response rating (pigweed; [11]): 0; Morningglory plant response rating (morningglory; [5]): 0; Morningglory plant response rating (morningglory; [6]): 0; Plant response rating, Morningglory (morningglory; [7]): 2; Morningglory plant response rating (morningglory; [8]): 0; Morningglory plant response rating (morningglory; [9]): 2; Morningglory plant response rating (morningglory; [10]): 0; Plant response rating (0 to 10; 0 is no effect, 10 is complete control), Morningglory (morningglory; Rate 250 g/ha, Postemergence): 2; Morningglory plant response rating (morningglory; [11]): 7
